Experimental findings from ChEMBL document CHEMBL1148682, “Cyclopentane-based human NK1 antagonists. Part 2: development of potent, orally active, water-soluble derivatives” (Bioorg Med Chem Lett, 2006) are described below.

The data set is described as follows: Dissociation constant, pKa of the compound. In kind it is physicochemical.
For `C[C@@H](O[C@H]1CC[C@@H](N(C)Cc2c[nH]c(O)n2)[C@@H]1c1ccc(F)cc1)c1cc(C(F)(F)F)cc(C(F)(F)F)c1`, the pKa (as a rule, the negative logarithm of the acid dissociation constant) is 6.2.
The result for `C[C@@H](O[C@H]1CC[C@@H](N(C)CC(N)=O)[C@@H]1c1ccc(F)cc1)c1cc(C(F)(F)F)cc(C(F)(F)F)c1` reads 5.3; that for `CN(CC(N)=O)C1CCC(OCc2cc(C(F)(F)F)cc(C(F)(F)F)c2)C1c1ccccc1` (configuration not stated), 5.8; that for `C[C@@H](O[C@H]1CC[C@@H](N(C)Cc2n[nH]c(O)n2)[C@@H]1c1ccc(F)cc1)c1cc(C(F)(F)F)cc(C(F)(F)F)c1`, 4.7.
The result for `CNC(=O)CN(C)[C@@H]1CC[C@H](O[C@H](C)c2cc(C(F)(F)F)cc(C(F)(F)F)c2)[C@H]1c1ccc(F)cc1` reads 5.3; that for `NC(=O)CNC1CCC(OCc2cc(C(F)(F)F)cc(C(F)(F)F)c2)C1c1ccccc1` (configuration not stated), 6.6.
The result for `C[C@@H](O[C@H]1OCCN(Cc2n[nH]c(=O)[nH]2)[C@H]1c1ccc(F)cc1)c1cc(C(F)(F)F)cc(C(F)(F)F)c1` [APREPITANT] reads below 3.5.
